These results are taken from article PMC12040169 (PLOS Biology, 2025).

A short description of the data set: in vitro. Conditions: human, hela cells.

Turning to `CCOc1cc(OCC)cc(C(=O)N2CCC3(CC2)CC(=O)c2ccc(OCC)cc2O3)c1` [CBK168014], for the setting “% viability”, the viability at 28.5 h, 10 µM came out at 98.8%. Same read-out and setting: then `Cc1ccc(S(=O)(=O)N2CCC3(CC2)OCCO3)cc1Cl` [CBK043731], with 97.1%; and `Cc1cc(C(=O)NC2(C#N)CCSCC2)n(C)n1` [CBK306386], with 90.9%; and `CN(C)c1ccccc1C1(O)CN2CCC1CC2` (centres unmarked) [CBK022620], with 86.8%. On the same count and under the same terms, then `COc1ccccc1CN(C)C(=O)CCc1ccc(S(N)(=O)=O)cc1` [CBK304585], with 86.8%. Turning to `CN(C)C(=O)Oc1cc(CN2CCCC2)c2ccn(S(=O)(=O)c3ccccc3)c2c1` [CBK137151T], the viability at 28.5 h, 10 µM came out at 101%. Consider `COC(=O)c1csc(-c2ccc(Cl)cc2Cl)n1` [CBK067776], for which the viability at 28.5 h, 10 µM (% viability) amounted to 103%. On the same count and under the same terms, then `CCN(CC)c1ccc(SC)n1C` [CBK020929], with 104%; and `CCN1C(=O)c2ccccc2C(=O)[C@@]2(C)CN(C(=O)C3CC3)C[C@@H]12` [CBK284567], with 81.5%.

`Cc1nnc(SCC(=O)N2CCN(Cc3ccccc3)CC2)s1` [CBK267196]: the viability at 28.5 h, 10 µM (% viability) came out at 96%. As for `Cc1cc(C)c2c(CC(=O)NCCCN3CCOCC3)coc2c1` [CBK268307], the viability at 28.5 h, 10 µM (% viability) was determined as 96.8%. With `CN(c1ccccc1)S(=O)(=O)c1cccc(NC(=O)c2ccc(=O)[nH]n2)c1` [CBK297091], where the note is “% viability”, the viability at 28.5 h, 10 µM was found to be 96.3%. With `CCC(Sc1nnc2c3ccccc3n(C)c2n1)C(=O)Nc1sc2c(c1C#N)CCCC2` (centres unmarked) [CBK263031], the viability at 28.5 h, 10 µM (% viability) came to 92.6%. Same read-out and setting: then `NC(=O)CN(Cc1ccc(Cl)cc1)S(=O)(=O)c1ccccc1` [CBK264149], with 99.5%; and `NCc1cnc2c(c1)CCC2` [CBK018584G], with 90.8%. On the same count and under the same terms, then `CCN(CCO)c1ccc(Nc2cc(-c3cc(C(F)(F)F)cc(C(F)(F)F)c3)ncn2)cc1` [CBK090994], with 106%; and `CCOC(=O)c1c(-c2ccc(OC)cc2)noc1C(O)c1ccccc1` (centres unmarked) [CBK002296], with 90.6%; and `N#Cc1cccc(NC(=O)NC[C@H]2C[C@@H]3CC[N@]2C[C@@H]3CN2CCOCC2)c1` [CBK288763], with 108%. For `CCOC(=O)C1(c2ccccc2)CCN(C(=O)CCC(=O)O)CC1` [CBK132197], under “% viability, bulk resorufin, single well”, the viability at 28.5 h, 10 µM turned out to be 94.7%.

As to `COc1ccc(Nc2nc(-c3ccccc3)c(C)s2)c(OC)c1` [CBK131709], the viability at 28.5 h, 10 µM (% viability) came to 106%.

For the compound `COc1ccccc1CNCCNC(=O)OC(C)(C)C` [CBK056694], the viability at 28.5 h, 10 µM (% viability) was 105%.

On to `Cc1nn(CC(=O)N2CCCCCC2)c(=O)c2cc3ccsc3n12` [CBK284060], for which, under “% viability”, the viability at 28.5 h, 10 µM came out at 84.8%.

`Cc1cccc(CN(CCCN(C)C)Cc2ccc(C)o2)n1` [CBK283187]: the viability at 28.5 h, 10 µM (% viability) was 98.2%. Regarding `COC(=O)c1cc(-c2cccnc2)[nH]n1` [CBK268945], where the note is “% viability”, the viability at 28.5 h, 10 µM worked out at 104%. Consider `O=C(C1CCCN(C2CCN(Cc3ccccc3)CC2)C1)N1CCN(c2ccccc2)CC1` (centres unmarked) [CBK265440G], for which, under “% viability”, the viability at 28.5 h, 10 µM amounted to 113%. With `O=C(Nc1cc(N2CCCS2(=O)=O)ccc1F)c1n[nH]c2ccccc12` [CBK304216], for the setting “% viability”, the viability at 28.5 h, 10 µM was 80.5%. Regarding `Cc1cc(C)n(CC(=O)NCC2CCCO2)c(=O)c1C#N` (centres unmarked) [CBK269926], for the setting “% viability”, the viability at 28.5 h, 10 µM is 85.4%. The same measure, in the same setting: next, `CC1CN(C(=O)Nc2ccccc2F)CC(C)O1` (centres unmarked) [CBK004990]: 89.9%; `COCCn1c(SCC(=O)N2CCNC2=O)nc2ccccc21` [CBK305851]: 97.3%. Still for that read-out and setting: next, `CCOC(=O)C1CCCN(C(=O)CCn2c(=O)oc3cc(Cl)ccc32)C1` (centres unmarked) [CBK304516]: 93.8%; `CCCCn1c(SCC(=O)NCC2(c3ccc4c(c3)OCCO4)CCCC2)n[nH]c1=O` [CBK296736]: 99.6%.

`CC(O)(CC(=O)O)CC(=O)OCCc1ccc2c(c1)CCC2` (centres unmarked) [CBK017766]: the viability at 28.5 h, 10 µM (% viability) came to 95.2%. For `c1cnc(N2CCN(CC3CC3)CC2)c(OCCN2CCOCC2)n1` [CBK082909], the viability at 28.5 h, 10 µM (% viability) came to 87.2%. As for `Cn1cccc1C(=O)NCc1ccccc1OC1CCNC1` (centres unmarked) [CBK029463T], the viability at 28.5 h, 10 µM (% viability) turned out to be 88.7%.

For `NC1=NC(=O)C2(COC(c3cccnc3)OC2)S1` (centres unmarked) [CBK019981], the viability at 28.5 h, 10 µM (% viability) was determined as 91.3%. Still for that read-out and setting: next, `COc1ccc(CC(=O)Nc2ccc(-c3nnc(-c4ccccc4)o3)cc2)cc1OC` [CBK267414]: 94.9%. For `CC(C)(C)Nc1c(C2CCCN(C(=O)C3CC3)C2)nc2ccccn12` (centres unmarked) [CBK284759], the viability at 28.5 h, 10 µM (% viability) is 105%. With `CN1CCN(c2snnc2CO)CC1` [CBK025626], the viability at 28.5 h, 10 µM (% viability) is 99.5%. On the same count and under the same terms, next, `COc1cc(C(=O)O)ccc1OCC(=O)Nc1ccc(F)cc1` [CBK287101]: 95.5%; `CC(C)c1nc(C2CCCN(c3ncc(C#N)cc3Cl)C2)no1` (centres unmarked) [CBK304128]: 111%. Same read-out and setting: then `COc1cc(-c2nccnc2NCc2ccc(OC(F)(F)F)cc2)cc(OC)c1OC` [CBK038063], with 117%.

For the compound `O=C(Cc1ccc(F)cc1)N1CCCC(c2nccnc2-c2cccc(C(F)(F)F)c2)C1` (centres unmarked) [CBK286210], the viability at 28.5 h, 10 µM (% viability) came to 99.8%. The same measure, in the same setting: then `COc1ccnc(N2CCCN(CCCC#N)CC2)n1` [CBK084124], with 88.4%.

For the compound `Cc1cc(C)c(S(=O)(=O)Nc2nnc(C)s2)c(C)c1` [CBK045497], the viability at 28.5 h, 10 µM (% viability) stood at 87.5%. For `CCN(CC)C(=O)C1CCCN(C(=O)Nc2ccc3[nH]ccc3c2)C1` (centres unmarked) [CBK156133], the viability at 28.5 h, 10 µM (% viability) turned out to be 98%. For `CS(=O)(=O)c1ccc(Cn2ccnc(OC3CCN(C(=O)c4cccc(C#N)c4)CC3)c2=O)cc1` [CBK161810], the viability at 28.5 h, 10 µM (% viability) was 105%.

With `Cc1cc(S(=O)(=O)NCC(=O)O)ccc1F` [CBK266632], the viability at 28.5 h, 10 µM (% viability) worked out at 112%.

As for `CC(Sc1ccc(S(=O)(=O)N2CCN(C)CC2)cn1)C(=O)Nc1ccc(C(C)(C)C)cc1` (centres unmarked) [CBK297551], the viability at 28.5 h, 10 µM (% viability) is 106%.

Regarding `Cc1cnn(CCC(=O)NC(Cc2ccsc2)c2nccs2)c1` (centres unmarked) [CBK284664], the viability at 28.5 h, 10 µM (% viability) was found to be 88.4%. Regarding `COc1cc(OC)c(OC)cc1CN1CCN(Cc2ccco2)CC1` [CBK074509G], for the setting “% viability”, the viability at 28.5 h, 10 µM turned out to be 92.9%. Still for that read-out and setting: next, `CN1C(=O)CN(C2CCCCC2)C1=O` [CBK116320]: 82.3%. The same measure, in the same setting: then `C=C1C2(C(=O)N3CCC(Oc4cccnc4)CC3)CCC(C2)C1(C)C` (centres unmarked) [CBK282082], with 107%; and `CC(=O)Nc1cccc(-n2ncc(-c3cccnc3)n2)c1` [CBK112811], with 98.7%; and `Cc1cc(CN2CCN(C(=O)NCCc3ccccn3)CC2)on1` [CBK305637], with 80%. The same measure, in the same setting: then `COc1ccc(-c2cc3cccn(CC(=O)N(C)C)c-3n2)cc1` [CBK285382], with 105%; and `COc1ccc(CN(CCN(C)C)C(=O)NCc2ccc(-c3ccccc3)cc2)cc1OC` [CBK159293], with 91.4%.

With `COC(CNC(=O)N(C)Cc1nncn1C(C)C)c1cccs1` (centres unmarked) [CBK306556], the viability at 28.5 h, 10 µM (% viability) worked out at 90.8%. Consider `CC(C)(C)NC(=O)Cn1c(-c2cccs2)cc2cccnc21` [CBK282455], for which the viability at 28.5 h, 10 µM (% viability) is 97.1%.

Take `CC(Nc1ncnc2c1cnn2C)c1ccccc1` (centres unmarked) [CBK288093]: the viability at 28.5 h, 10 µM (% viability) was found to be 106%.

The viability is a read-out of living cells in per cent, often relative to untreated cells.
